Experimental data reported in ChEMBL document CHEMBL5113511, “Discovery of Small-Molecule Degraders of the CDK9-Cyclin T1 Complex for Targeting Transcriptional Addiction in Prostate Cancer” (J Med Chem, 2022).
Calls of active or inactive are those of the source. The calls are words filed in the database; no cut-off is given here.

Tests used:
[1] = target: T1, CDK9/cyclin T1 (Homo sapiens) (UniProt O60563+P50750); experiment: Induction of CDK9/Cyclin T1 degradation in human 22Rv1 cells assessed as downregulation of AR-V7 splice variant protein expression at 0.3 to 3 uM measured after 24 hrs by immunoblot analysis; type: cell-based; details: dose 0.3-3 µM
CWR22R [2] = experiment: Inhibition of colony formation in human 22Rv1 cells at 100 to 200 nM treated for 14 days with replacement with fresh medium containing compound for every 48 hrs by crystal violet staining based analysis; type: functional, cell-based; details: dose 100-200 nM, time 14.0 day
[3] = target: T1, CDK9/cyclin T1 (Homo sapiens); experiment: Induction of CDK9/Cyclin T1 degradation in human 22Rv1 cells assessed as downregulation of AKR1C3 gene expression at 2 uM incubated for 24 hrs by RNA-Seq based analysis; type: cell-based
[4] = target: Glycogen synthase kinase-3 alpha (Homo sapiens) (UniProt P49840); experiment: Induction of Hyt-mediated degradation of GSK3A in human 22Rv1 cells assessed as downregulation of GSK3A protein level at 2 uM incubated for 24 hrs by DIA-based proteomics analysis; type: cell-based
[5] = target: T2, Cyclin-dependent kinase 9 (Homo sapiens, UniProt P50750); experiment: Induction of Flag-tagged CDK9 (unknown origin) polyubiquitination expressed in HEK293T cells co-transfected with HA-tagged Cyclin T1 and Myc ubiquitin assessed as increase in K48-linkage poly-ubiqutinated CDK9 level at 1 to 2 uM incubated for 20 hrs by western blot analysis; type: cell-based; details: dose 1-2 µM
[6] = target: Cyclin-dependent kinase 6 (Homo sapiens) (UniProt Q00534); experiment: Induction of CDK6 degradation in human 22Rv1 cells assessed as downregulation of CDK6 level at 3 uM measured after 12 hrs by DIA-based proteomics analysis; type: cell-based
[7] = target: T1, CDK9/cyclin T1 (Homo sapiens); experiment: Induction of CDK9/Cyclin T1 degradation in human 22Rv1 cells assessed as decrease in cyclin D1 protein expression at 3 uM measured for 36 hrs by DIA-based proteomics analysis; type: cell-based
[8] = target: T1, CDK9/cyclin T1 (Homo sapiens); experiment: Induction of CDK9/Cyclin T1 degradation in human 22Rv1 cells assessed as downregulation of AR protein expression at 2 uM measured after 24 hrs by immunoblot analysis; type: cell-based
[9] = target: T1, CDK9/cyclin T1 (Homo sapiens); experiment: Induction of CDK9/Cyclin T1 degradation in human 22Rv1 cells assessed as downregulation of CDC6 gene expression at 2 uM incubated for 24 hrs by RNA-Seq based analysis; type: cell-based
[10] = target: T2, Cyclin-dependent kinase 9; experiment: Induction of HyT-mediated degradation of CDK9 in human 22Rv1 cells at 0.3 to 3 uM incubated for 24 hrs by immunoblot analysis; type: cell-based; details: dose 0.3-3 µM
[11] = target: T1, CDK9/cyclin T1 (Homo sapiens); experiment: Induction of CDK9/Cyclin T1 degradation in human 22Rv1 cells assessed as downregulation of MYCL gene expression at 2 uM incubated for 24 hrs by RNA-Seq based analysis; type: cell-based
[12] = target: T1, CDK9/cyclin T1 (Homo sapiens); experiment: Induction of CDK9/Cyclin T1 degradation in human 22Rv1 cells assessed as downregulation of NAT1 gene expression at 2 uM incubated for 24 hrs by RNA-Seq based analysis; type: cell-based
CWR22R [13] = experiment: Downregulation of CDK6 level in human 22Rv1 cells at 3 uM measured after 12 hrs by DIA-based proteomics analysis; type: functional, cell-based
[14] = target: T1, CDK9/cyclin T1 (Homo sapiens); experiment: Induction of CDK9/Cyclin T1 degradation in human 22Rv1 cells assessed as downregulation of KLK3 protein expression at 0.3 to 3 uM incubated fo 24 hrs by immunoblot analysis; type: cell-based; details: dose 0.3-3 µM
CWR22R [15] = experiment: Downregulation of CDK7 level in human 22Rv1 cells at 3 uM measured after 12 hrs by DIA-based proteomics analysis; type: functional, cell-based
CWR22R [16] = experiment: Downregulation of CDK1 level in human 22Rv1 cells at 3 uM measured after 12 hrs by DIA-based proteomics analysis; type: functional, cell-based
[17] = target: G1/S-specific cyclin-E1 (Homo sapiens) (UniProt P24864); experiment: Induction of HyT-mediated degradation of cyclin E1 in human 22Rv1 cells assessed as reduction in cyclin E1 level at 6 uM incubated for 24 hrs by immunoblot analysis; type: cell-based
[18] = target: T1, CDK9/cyclin T1 (Homo sapiens); experiment: Induction of CDK9/Cyclin T1 degradation in human 22Rv1 cells assessed as downregulation of c-Myc protein expression at 2 uM measured after 24 hrs by immunoblot analysis; type: cell-based
[19] = target: T1, CDK9/cyclin T1 (Homo sapiens); experiment: Induction of CDK9/Cyclin T1 degradation in human 22Rv1 cells assessed as downregulation of MYCN gene expression at 2 uM incubated for 24 hrs by RNA-Seq based analysis; type: cell-based
Cyclin-T1 [20] = target: T3, Cyclin-T1 (Homo sapiens, UniProt O60563); experiment: Induction of HA-tagged Cyclin T1 (unknown origin) polyubiquitination expressed in HEK293T cells co-transfected with Flag-tagged CDK9 and Myc ubiquitin assessed as increase in K48-linkage poly-ubiqutinated Cyclin T1 level at 1 to 2 uM incubated for 20 hrs by immunoprecipitation analysis; type: cell-based; details: dose 1-2 µM
[21] = target: T2, Cyclin-dependent kinase 9; experiment: Induction of Hyt-mediated degradation of CDK9 in human 22Rv1 cells assessed as downregulation of CDK9 level at 2 uM incubated for 24 hrs by DIA-based proteomics analysis; type: cell-based
Cyclin-T1 [22] = target: T3, Cyclin-T1; experiment: Induction of HyT-mediated degradation of Cyclin T1 in human 22Rv1 cells assessed as reduction in Cyclin T1 protein level at 3 uM measured after 24 to 48 hrs by immunoblot analysis; type: cell-based; details: time 24-48 hrs
[23] = target: T1, CDK9/cyclin T1 (Homo sapiens); experiment: Induction of CDK9/Cyclin T1 degradation in human 22Rv1 cells assessed as downregulation of ZNF517 gene expression at 2 uM incubated for 24 hrs by RNA-Seq based analysis; type: cell-based
[24] = target: T1, CDK9/cyclin T1 (Homo sapiens); experiment: Induction of CDK9/Cyclin T1 degradation in human 22Rv1 cells assessed as downregulation of BTG1 gene expression at 2 uM incubated for 24 hrs by RNA-Seq based analysis; type: cell-based
Cyclin-T1 [25] = target: T3, Cyclin-T1; experiment: Induction of HyT-mediated degradation of Cyclin T1 in human 22Rv1 cells at 3 uM measured for 36 hrs by DIA-based proteomics analysis; type: cell-based
[26] = target: T1, CDK9/cyclin T1 (Homo sapiens); experiment: Induction of CDK9/Cyclin T1 degradation in human 22Rv1 cells assessed as downregulation of KLK1 gene expression at 2 uM incubated for 24 hrs by RNA-Seq based analysis; type: cell-based
[27] = target: Cyclin-dependent kinase 4 (Homo sapiens) (UniProt P11802); experiment: Induction of CDK4 degradation in human 22Rv1 cells assessed as downregulation of CDK4 level at 3 uM measured after 12 hrs by DIA-based proteomics analysis; type: cell-based
[28] = target: T1, CDK9/cyclin T1 (Homo sapiens); experiment: Induction of CDK9/Cyclin T1 degradation in human 22Rv1 cells assessed as decrease in cyclin B1 protein expression at 3 uM measured for 36 hrs by DIA-based proteomics analysis; type: cell-based
[29] = target: T2, Cyclin-dependent kinase 9; experiment: Induction of HyT-mediated degradation of CDK9 in human 22Rv1 cells at 3 uM measured for 36 hrs by DIA-based proteomics analysis; type: cell-based
CWR22R [30] = experiment: Antiproliferative activity against human 22Rv1 cells assessed as reduction in cell viability measured after 5 days by CellTiter-Glo assay; type: functional, cell-based; details: 22Rv1, 120 h
[31] = target: T1, CDK9/cyclin T1 (Homo sapiens); experiment: Induction of CDK9/Cyclin T1 degradation in human 22Rv1 cells assessed as downregulation of c-Myc protein expression at 0.3 to 3 uM measured after 24 hrs by immunoblot analysis; type: cell-based; details: dose 0.3-3 µM
[32] = target: T1, CDK9/cyclin T1 (Homo sapiens); experiment: Induction of CDK9/Cyclin T1 degradation in human 22Rv1 cells assessed as downregulation of MCL1 protein expression at 0.3 to 3 uM incubated for 24 hrs by immunoblot analysis; type: cell-based; details: dose 0.3-3 µM

T2 sequence (P50750 whole entry): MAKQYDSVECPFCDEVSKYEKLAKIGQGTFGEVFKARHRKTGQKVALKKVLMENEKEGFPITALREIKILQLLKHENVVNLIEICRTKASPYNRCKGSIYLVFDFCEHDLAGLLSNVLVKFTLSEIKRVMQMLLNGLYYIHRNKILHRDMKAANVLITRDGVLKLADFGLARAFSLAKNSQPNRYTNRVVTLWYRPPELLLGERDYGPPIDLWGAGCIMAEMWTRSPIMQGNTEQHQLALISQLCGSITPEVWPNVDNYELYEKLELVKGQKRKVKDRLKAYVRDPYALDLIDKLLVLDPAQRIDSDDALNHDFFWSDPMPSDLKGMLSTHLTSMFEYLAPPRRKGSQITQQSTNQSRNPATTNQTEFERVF
T3 sequence (O60563 whole entry): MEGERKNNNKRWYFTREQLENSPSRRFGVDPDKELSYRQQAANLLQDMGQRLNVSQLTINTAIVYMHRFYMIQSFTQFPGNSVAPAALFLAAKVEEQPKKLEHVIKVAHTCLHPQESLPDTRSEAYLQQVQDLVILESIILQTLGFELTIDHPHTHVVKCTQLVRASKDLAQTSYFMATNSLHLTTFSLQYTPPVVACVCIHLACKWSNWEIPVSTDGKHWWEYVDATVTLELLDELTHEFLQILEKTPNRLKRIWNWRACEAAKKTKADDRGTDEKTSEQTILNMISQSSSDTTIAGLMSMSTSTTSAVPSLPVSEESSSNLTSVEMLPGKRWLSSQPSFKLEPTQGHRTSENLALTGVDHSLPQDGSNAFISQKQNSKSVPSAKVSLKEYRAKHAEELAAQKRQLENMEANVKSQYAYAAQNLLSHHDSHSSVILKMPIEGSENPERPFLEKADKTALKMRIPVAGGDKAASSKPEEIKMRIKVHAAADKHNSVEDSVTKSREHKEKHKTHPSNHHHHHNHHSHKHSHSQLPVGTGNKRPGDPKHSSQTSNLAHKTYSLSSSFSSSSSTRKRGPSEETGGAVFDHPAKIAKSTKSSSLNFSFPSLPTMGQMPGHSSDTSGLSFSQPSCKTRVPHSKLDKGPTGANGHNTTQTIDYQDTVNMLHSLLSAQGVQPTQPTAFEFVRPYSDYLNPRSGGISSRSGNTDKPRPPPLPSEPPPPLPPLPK
Chain of Cyclin-dependent kinase 4 (Homo sapiens) (P11802 whole entry): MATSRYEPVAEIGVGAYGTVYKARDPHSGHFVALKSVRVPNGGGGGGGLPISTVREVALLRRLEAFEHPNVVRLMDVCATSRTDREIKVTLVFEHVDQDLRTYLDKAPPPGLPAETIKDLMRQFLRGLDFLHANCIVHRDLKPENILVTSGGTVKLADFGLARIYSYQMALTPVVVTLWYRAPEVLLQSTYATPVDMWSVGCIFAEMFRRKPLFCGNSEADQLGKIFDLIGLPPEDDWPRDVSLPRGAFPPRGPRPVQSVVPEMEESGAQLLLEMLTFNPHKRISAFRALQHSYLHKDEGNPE
Chain of G1/S-specific cyclin-E1 (Homo sapiens) (P24864 whole entry): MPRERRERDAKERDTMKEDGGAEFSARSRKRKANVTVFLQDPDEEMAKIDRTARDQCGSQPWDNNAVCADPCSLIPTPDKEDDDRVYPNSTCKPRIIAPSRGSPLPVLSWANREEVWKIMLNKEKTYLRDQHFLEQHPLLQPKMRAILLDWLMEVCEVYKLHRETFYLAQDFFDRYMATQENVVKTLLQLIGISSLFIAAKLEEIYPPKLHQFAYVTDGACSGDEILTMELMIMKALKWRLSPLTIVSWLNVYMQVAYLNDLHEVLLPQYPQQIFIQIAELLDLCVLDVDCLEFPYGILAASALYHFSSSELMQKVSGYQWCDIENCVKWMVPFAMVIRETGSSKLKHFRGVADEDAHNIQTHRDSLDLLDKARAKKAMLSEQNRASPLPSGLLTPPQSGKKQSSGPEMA
Chain of Cyclin-dependent kinase 6 (Homo sapiens) (Q00534 whole entry): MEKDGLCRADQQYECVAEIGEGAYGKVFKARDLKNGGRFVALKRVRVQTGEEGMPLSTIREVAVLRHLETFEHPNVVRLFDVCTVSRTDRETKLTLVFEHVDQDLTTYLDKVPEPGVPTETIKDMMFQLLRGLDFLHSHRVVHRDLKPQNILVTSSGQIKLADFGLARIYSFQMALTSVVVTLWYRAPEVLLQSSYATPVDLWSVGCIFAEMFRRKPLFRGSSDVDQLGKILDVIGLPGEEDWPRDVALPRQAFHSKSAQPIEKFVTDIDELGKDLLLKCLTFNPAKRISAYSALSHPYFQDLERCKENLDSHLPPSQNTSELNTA
Chain of Glycogen synthase kinase-3 alpha (Homo sapiens) (P49840 2-483 limits assumed): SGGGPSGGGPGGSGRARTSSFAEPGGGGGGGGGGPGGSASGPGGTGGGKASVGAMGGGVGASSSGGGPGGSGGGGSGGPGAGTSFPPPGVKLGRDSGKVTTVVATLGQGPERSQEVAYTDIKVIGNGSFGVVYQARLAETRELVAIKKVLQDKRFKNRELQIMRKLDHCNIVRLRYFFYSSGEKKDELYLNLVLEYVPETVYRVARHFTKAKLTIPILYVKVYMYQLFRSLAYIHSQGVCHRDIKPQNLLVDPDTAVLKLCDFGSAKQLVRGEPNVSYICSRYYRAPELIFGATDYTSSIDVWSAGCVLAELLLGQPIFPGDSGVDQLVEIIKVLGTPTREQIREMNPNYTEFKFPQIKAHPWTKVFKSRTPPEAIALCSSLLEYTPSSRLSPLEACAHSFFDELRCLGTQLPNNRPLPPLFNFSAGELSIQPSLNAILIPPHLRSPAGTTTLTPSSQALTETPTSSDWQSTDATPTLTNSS

Compound: CC(C)[C@@H]1CC[C@@H](C)C[C@H]1OCC(=O)NCCS(=O)(=O)N1CCC(C(=O)Nc2ncc(SCc3ncc(C(C)(C)C)o3)s2)CC1
- Activity [1]: Active
- inhibition (CWR22R [2]): Active
- Activity [3]: Active
- Activity [4]: Active
- Activity [5]: Active
- Activity [6]: Active
- Activity [7]: Active
- Activity [8]: Active
- Activity [9]: Active
- Activity [10]: Active
- Activity [11]: Active
- Activity [12]: Active
- inhibition (CWR22R [13]): Active
- Activity [14]: Active
- inhibition (CWR22R [15]): Active
- inhibition (CWR22R [16]): Active
- Activity [17]: Active
- Activity [18]: Active
- Activity [19]: Active
- Activity (Cyclin-T1 [20]): Active
- Activity [21]: Active
- Activity (Cyclin-T1 [22]): Active
- Activity [23]: Active
- Activity [24]: Active
- Activity (Cyclin-T1 [25]): Active
- Activity [26]: Active
- Activity [27]: Active
- Activity [28]: Active
- Activity [29]: Active
- IC50 (CWR22R [30]): 95 nM
- Activity [31]: Active
- Activity [32]: Active
